Reference: article PMC4111124, “Functional characterization of Candida albicans Hos2 histone deacetylase” (F1000Research, 2014)

Assays:
[1] = molecular target: T1, Hos2 histone deacetylase (Candida albicans, UniProt A0A1D8PJ17); assay: fluorogenic deacetylase assay with Boc-Lys(Ac)-AMC, % inhibition at […]; format: biochemical; settings: read-out: % inhibition ± SE / 10 μM
T1 construct: full length, N-terminal hexa-histidine tag, expressed in Sf9 cells

[2] = molecular target: T1, Hos2 histone deacetylase; assay: biochemical

T1 sequence (A0A1D8PJ17 entry or part of it): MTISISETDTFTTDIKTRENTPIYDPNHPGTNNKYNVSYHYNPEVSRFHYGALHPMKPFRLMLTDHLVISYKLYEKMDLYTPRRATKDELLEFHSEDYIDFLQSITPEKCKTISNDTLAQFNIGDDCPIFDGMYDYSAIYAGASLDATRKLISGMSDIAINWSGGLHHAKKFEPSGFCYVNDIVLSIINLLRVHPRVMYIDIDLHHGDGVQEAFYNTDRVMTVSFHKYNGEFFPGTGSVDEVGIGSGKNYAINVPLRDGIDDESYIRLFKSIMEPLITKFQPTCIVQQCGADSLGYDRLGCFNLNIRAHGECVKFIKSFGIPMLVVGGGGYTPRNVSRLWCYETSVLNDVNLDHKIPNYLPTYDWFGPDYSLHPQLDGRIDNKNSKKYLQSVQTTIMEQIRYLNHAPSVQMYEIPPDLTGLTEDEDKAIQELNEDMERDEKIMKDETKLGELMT

Compound	inhibition at 10 µM [1] [%]	IC50 [2] [nM]
Nc1ccccc1NC(=O)c1ccc(CNC(=O)OCc2cccnc2)cc1 [MS-275]	56.3	
CC(/C=C/C(=O)NO)=C\[C@@H](C)C(=O)c1ccc(N(C)C)cc1 [TSA]		2.8
